This assay deals with T1, acetylcholinesterase (AChE) (Homo sapiens, UniProt P22303).
T1 construct: amphiphilic form from human erythrocytes
Kind of assay: colorimetric AChE assay with MATP+ substrate. Type of assay: biochemical.

Here are results for two compounds from paper PMC3509069, “A DKP Cyclo(L-Phe-L-Phe) Found in Chicken Essence Is a Dual Inhibitor of the Serotonin Transporter and Acetylcholinesterase” (PLoS ONE, 2012).

T1 sequence (P22303 other isoform, or with tags, fused parts or gaps): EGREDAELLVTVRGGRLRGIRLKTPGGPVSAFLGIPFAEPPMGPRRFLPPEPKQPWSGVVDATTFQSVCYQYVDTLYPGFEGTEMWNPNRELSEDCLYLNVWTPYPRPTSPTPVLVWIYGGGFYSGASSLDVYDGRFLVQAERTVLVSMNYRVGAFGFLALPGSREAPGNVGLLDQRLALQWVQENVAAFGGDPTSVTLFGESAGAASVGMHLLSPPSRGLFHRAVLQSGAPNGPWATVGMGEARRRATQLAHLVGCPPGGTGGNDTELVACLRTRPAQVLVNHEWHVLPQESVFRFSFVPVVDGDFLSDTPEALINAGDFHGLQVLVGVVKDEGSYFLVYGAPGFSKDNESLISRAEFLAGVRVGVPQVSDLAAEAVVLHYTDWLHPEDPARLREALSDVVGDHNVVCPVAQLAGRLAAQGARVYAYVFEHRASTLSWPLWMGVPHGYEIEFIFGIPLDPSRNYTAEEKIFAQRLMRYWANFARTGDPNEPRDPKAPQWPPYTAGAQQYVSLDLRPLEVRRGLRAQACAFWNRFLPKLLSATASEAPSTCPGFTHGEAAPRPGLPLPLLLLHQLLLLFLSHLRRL

As to `O=C1NC(Cc2ccccc2)C(=O)NC1Cc1ccccc1` [cyclo(L-Phe-L-Phe)], the IC50 is around 3.4 µM.

Compound `O=C1[C@@H]2CCCN2C(=O)[C@@H]2CCCN12` [cyclo(L-Pro-L-Pro)] came in with an IC50 of 160 µM.

In general, IC50 refers to the concentration at which inhibition is half-maximal. Low readings indicate greater potency in that assay, high ones weaker potency in that assay.
